Results from patent US4239780A, “Phospholipase A2 inhibition” (The Upjohn Company, priority 1979, dated 1980).
Counter-ions that a name gives are not always drawn.

Assays:
[1] = biological target: phospholipase A2 (Naja naja, UniProt P15445); settings: cited from earlier work
[2] = biological target: T1, HOG PANCREAS PHOSPHOLIPASE A2 (Sus scrofa, UniProt P00592); experiment: coupled phospholipase A2 / soybean lipoxygenase oxygen consumption assay, hog pancreas enzyme; assay type: biochemical; settings: estimated I50 calculated from a partial inhibition value, pH 8.5, 37° C.
T1 construct: from tissue; host or cells: hog pancreas
T1 sequence (P00592 23-146): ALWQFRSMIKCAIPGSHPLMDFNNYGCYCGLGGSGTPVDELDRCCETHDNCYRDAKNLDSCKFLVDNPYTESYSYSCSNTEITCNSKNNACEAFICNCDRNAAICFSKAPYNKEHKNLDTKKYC

[3] = biological target: SNAKE VENOM PHOSPHOLIPASE A2; experiment: coupled phospholipase A2 / soybean lipoxygenase oxygen consumption assay, snake venom enzyme; assay type: biochemical; settings: estimated I50 calculated from a partial inhibition value, pH 8.5, 37° C.
[4] = biological target: BEE VENOM PHOSPHOLIPASE A2 (Apis mellifera, UniProt P00630); experiment: biochemical; settings: pH 8.5, 37° C.
Sequence of UniProt P00630 (P00630 34-167 limits assumed): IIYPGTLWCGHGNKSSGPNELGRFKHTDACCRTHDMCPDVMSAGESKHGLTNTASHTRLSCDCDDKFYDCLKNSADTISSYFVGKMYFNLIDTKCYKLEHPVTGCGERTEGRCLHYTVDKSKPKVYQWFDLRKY

[5] = biological target: T2, HUMAN PLATELET PHOSPHOLIPASE A2 (Homo sapiens, UniProt P47712); experiment: inhibition of collagen-induced aggregation of human platelets; assay type: cell-based; settings: human platelet rich plasma, read-out: I50 collagen (converted)
T2 construct: Human blood was drawn from an antecubital vein into 3.8% sodium citrate; endogenous in cells; host or cells: human platelets in citrated plasma (PRP)
T2 sequence (P47712 1-749): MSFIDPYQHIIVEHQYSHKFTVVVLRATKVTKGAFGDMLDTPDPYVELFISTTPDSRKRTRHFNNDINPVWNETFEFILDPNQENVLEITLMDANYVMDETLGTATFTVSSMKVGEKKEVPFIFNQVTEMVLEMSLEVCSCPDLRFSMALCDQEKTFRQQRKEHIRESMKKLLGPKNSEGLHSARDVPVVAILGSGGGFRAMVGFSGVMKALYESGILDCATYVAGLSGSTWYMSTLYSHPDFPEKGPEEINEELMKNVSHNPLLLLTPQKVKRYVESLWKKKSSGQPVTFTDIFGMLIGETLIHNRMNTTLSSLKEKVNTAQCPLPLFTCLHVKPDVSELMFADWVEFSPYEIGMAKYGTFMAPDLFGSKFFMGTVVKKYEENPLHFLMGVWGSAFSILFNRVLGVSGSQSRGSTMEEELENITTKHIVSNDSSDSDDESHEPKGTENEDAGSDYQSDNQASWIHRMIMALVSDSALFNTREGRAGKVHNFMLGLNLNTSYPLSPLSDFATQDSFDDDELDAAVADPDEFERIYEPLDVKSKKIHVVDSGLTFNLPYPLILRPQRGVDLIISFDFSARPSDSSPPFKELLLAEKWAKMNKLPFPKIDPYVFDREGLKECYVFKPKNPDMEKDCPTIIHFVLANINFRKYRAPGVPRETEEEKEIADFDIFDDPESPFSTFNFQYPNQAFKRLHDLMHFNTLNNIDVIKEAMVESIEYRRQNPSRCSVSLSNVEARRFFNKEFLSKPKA
Protocol: The compounds of the present invention were tested for their ability to inhibit collagen-induced aggregation of platelets at 100 μg. per ml. or less. The compounds that were active against collagen-induced aggregation were tested at the I50 dose against arachidonic acid-induced aggregation. Compounds that inhibited collagen-induced aggregation, but not arachidonic acid-induced aggregation, were reported as active phospholipase A2 inhibitors.
The test was run as follows. Human blood was drawn from an antecubital vein into 3.8% sodium citrate with the final citrate concentration being 0.38%. The blood was transferred to plastic centrifuge tubes and centrifuged at 200×g for 10 min. This yielded […] (PRP). This PRP was allowed to stand for 30 min. for testing at which point it was tested against 400 μg. per ml. of arachidonic acid. […] If the platelets aggregated to arachidonic acid, a dose of collagen that gave a substantial irreversible aggregation (approximately 60-80% transmission) was established. It was then attempted to block the response of collagen with 10 μg. per ml. of indomethacin. […] The ID50 for all unknown compounds was then established. Most of the compounds were tested at rather high concentrations and it was often necessary to place the compound in ethanol into the aggregation cuvet and evaporate the ethanol before testing.
Those that were reported as active were tested at the ID50 dose against 400 μg per ml. of arachidonic acid. […] The compounds are shown to inhibit phospholipase A2 from humans at low dosages.

[6] = test system: UV induced erythema; experiment: UV induced erythema on the skin of guinea pigs; assay type: in vivo, guinea pig; settings: for erythema score, 1 hour / erythema score, 2 hours / erythema score, 3 hours / erythema score, 4 hours / erythema score, 24 hours: aggregate score for 3 animals; for erythema score, (After 4 hours) Total Points / erythema score, (After 24 hours) Total Points: aggregate for 3 animals
Protocol: Some of the compounds of this invention were tested in vivo for their ability to inhibit the effects of UV induced erythema on the skin of guinea pigs. This is an example of an inflammatory process fulfilling the four pathological requirements of "rubor, calor, dolor, and tumor" i.e., reddening, heat, pain, and edematious swelling in the skin. Administration of the compounds of this invention to guinea pigs whose skin was subsequently exposed to ultraviolet light markedly retarded and in some cases eliminated altogether this inflammatory process. Administration of the compounds of this invention was performed both interparenterally and subcutaneously with equivalent results, thereby eliminating any possiblity of reduction in erthyma due to the so called "counter irritant" effect on the serosal soft surface of the gut.
The test was carried out as follows: Guinea pigs of the Hartley strain ranging in weight from 250 to 750 gm. were clipped with coarse and fine clippers to remove as much hair as possible from the back or abdomen. They were then treated with a commercial depilatory for six to seven min. after which they were washed with warm water. The animals were then injected I.P. or subcutaneously with solutions or suspensions of the test compounds made up at 0.02 molar concentrations. The dose was 0.3 ml. per 100 gm. of body weight. A control (untreated) group was also maintained. The animals were then held for 30 min. before being exposed as rapidly as possible to ultra-violet light using a Kromayer lamp for 30 sec. A scoring system was developed to quantitate the erythema. The scoring was from 0 to 5 and is described as follows:
0=no apparent reddening of the skin
0.5=some slight reddening, without a definite border
1.0=a discrete pink circle with a definite border
2.0=a discrete circle of redness with a definite border more intense than 1.0
3.0=same circle with still greater intensity
4.0=same circle with a near maximal response but without any raising of the erythematous spot above the level of the surrounding skin
5.0=a raised edematous circle with the redness at maximal intensity
The animals were scored at hourly intervals for the first four hours. The erythema reached a maximum at this time in the control animals. The major difference between results at 4 hr. and those at 24 is the developement of edema and this occurred in some of the animals treated with phospholipase inhibitors without erythema being present. The results of this test are shown in tabular form in Tables VI and VII. The aggregate scores of the animals treated with the designated compounds are recorded at hourly intervals and compared with the control (untreated) scores. As shown by the tables, the method of this invention markedly retarded UV-induced erythema.

[7] = test system: phospholipase A2 of rabbit polymorphonuclear leukocytes; settings: cited from earlier work
[8] = biological target: phospholipase A2 from venom of Crotalus Adamanteus (Crotalus adamanteus, UniProt P00623); settings: enzyme from Crotalus Adamanteus venom; cited from earlier work
Sequence of phospholipase A2 from venom of Crotalus Adamanteus (P00623 17-138 limits assumed): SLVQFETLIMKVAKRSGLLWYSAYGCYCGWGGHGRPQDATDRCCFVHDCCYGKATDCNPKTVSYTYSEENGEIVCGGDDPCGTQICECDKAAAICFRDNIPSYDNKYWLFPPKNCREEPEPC

[9] = biological target: phospholipase A2 from venom of bee (Apis mellifera, UniProt P00630); settings: enzyme from bee venom; cited from earlier work
Sequence of phospholipase A2 from venom of bee (P00630 34-167 limits assumed): as the sequence (P00630 34-167 limits assumed) above

[10] = biological target: T3, phospholipase A2 from pig pancreas (Sus scrofa, UniProt P00592); settings: enzyme from pig pancreas; cited from earlier work
T3 construct: host or cells: pig pancreas
T3 sequence (P00592 23-146): as the sequence (P00592 23-146) above

[11] = test system: phospholipase A2 derived from perfused guinea pig lung; settings: enzyme derived from perfused guinea pig lung; cited from earlier work

Sequence of phospholipase A2 (P15445 whole entry, looked up): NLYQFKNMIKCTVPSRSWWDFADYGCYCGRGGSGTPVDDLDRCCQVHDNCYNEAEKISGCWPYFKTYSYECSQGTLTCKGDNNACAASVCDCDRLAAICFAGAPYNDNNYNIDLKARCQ

O=C(CBr)c1ccc(Br)cc1 [Bromphenacyl bromide]
inhibition of phospholipase A2 [1]: inhibit phospholipase A2 by acylating a histadine residue

CO[C@]1(c2ccccc2C)CC[C@@H](NCCCC(=O)c2ccc(F)cc2)CC1 [C, Butyrophenone, 4'-fluoro-4-[(t-4-methoxy-4-o-tolylcyclohexyl)-amino]-, hydrochloride]
IC50 [2]: 11.8 µM
IC50 [3]: 301 µM
IC50 [4]: 404 µM
IC50 [5]: 196 µM
erythema score, 1 hour ([6]; intraperitoneal, 23-25.2 mg/kg given 30 min. before UV, control 12): 8
erythema score, 2 hours ([6]; intraperitoneal, 23-25.2 mg/kg given 30 min. before UV, control 18): 13
erythema score, 3 hours ([6]; intraperitoneal, 23-25.2 mg/kg given 30 min. before UV, control 24): 12
erythema score, 4 hours ([6]; intraperitoneal, 23-25.2 mg/kg given 30 min. before UV, control 30): 12
erythema score, 24 hours ([6]; intraperitoneal, 23-25.2 mg/kg given 30 min. before UV, control 50): 27
erythema score, (After 4 hours) Total Points ([6]; intraperitoneal, 23-25.2 mg/kg, control 78): 45
erythema score, (After 24 hours) Total Points ([6]; intraperitoneal, 23-25.2 mg/kg, control 128): 72
erythema score, 1 hour ([6]; subcutaneous, 60.9-66.1 mg/kg given 30 min. before UV, control 17): 10
erythema score, 2 hours ([6]; subcutaneous, 60.9-66.1 mg/kg given 30 min. before UV, control 23): 11
erythema score, 3 hours ([6]; subcutaneous, 60.9-66.1 mg/kg given 30 min. before UV, control 29): 9
erythema score, 4 hours ([6]; subcutaneous, 60.9-66.1 mg/kg given 30 min. before UV, control 34): 10
erythema score, 24 hours ([6]; subcutaneous, 60.9-66.1 mg/kg given 30 min. before UV, control 56): 40
erythema score, (After 4 hours) Total Points ([6]; subcutaneous, 60.9-66.1 mg/kg, control 103): 39
erythema score, (After 24 hours) Total Points ([6]; subcutaneous, 60.9-66.1 mg/kg, control 158): 79

COc1ccc2c(c1)c(CC(=O)O)c(C)n2C(=O)c1ccc(Cl)cc1 [indomethacin, Indomethacin]
inhibition of phospholipase A2 [7]: inhibit phospholipase A2 of rabbit polymorphonuclear leukocytes in dose dependent fashion
inhibition of phospholipase A2 [8]: inactive
inhibition of phospholipase A2 [9]: inactive
inhibition of phospholipase A2 [10]: inactive

CCN(CC)CCCC(C)Nc1c2ccc(Cl)cc2nc2ccc(OC)cc12 (stereo not drawn) [mepacrine]
inhibition of phospholipase A2 [11]: inhibits the activity of phospholipase A2
